In patent publication US20120040965A1, “SUBSTITUTED AZEPINO[4,3-B]INDOLES, PHARMACOLOGICAL COMPOSITION AND A METHOD FOR THE PRODUCTION AND USE THEREOF” (priority 2006, published 2012):

Columns and labels:
[1] = tested on: male mice of C57BL/6 line; assay: Acute toxicity in mice; assay type: in vivo; conditions: for animals' death: 100 mg/kg
Procedure: Research of acute toxicity. Acute toxicity of the proposed compounds was determined in male mice of C57BL/6 line. […] Observation time was 14 days.

[2] = tested on: male mice of C57BL/6 line; assay: Test of familiar object recognition in a novel localization (spatial memory); assay type: in vivo; conditions: for % of time investigating the object in a novel localization / % of time investigating the object in familiar localization: testing 48 hr after training; for effect on memory: doses of 1 mg/kg and 5 mg/kg
Description: Testing of compounds of general formula 1 on spatial memory in test of novel object recognition. Test of novel object recognition is based on the fact that rats and mice investigate spontaneously a novel object or novel object localization (NL) for longer period of time than the known object or known object localization (KL). The test was tried on rats [A. Ennaceur and J. Delacour, A new one-trial test for neurobiological studies of memory in rats. 1: behavioral data. Behay. Brain Res. 1988, 31, 47-59; J. C. Dodart, C. Mathis and A. Ungerer, Scopolamine-induced deficits in a two-trial object recognition task in mice. NeuroReport 1997, 8, 1173-1178; C. Messier, Object recognition in mice: improvement of memory by glucose. Neurobiol. Learn. Mem. 1997, 67, 172-175; C. Pittenger, Y. Y. Huang, R. F. Paletzki, R. Bourtchouladze, H. Scanlin, S. Vronskaya et al., Reversible inhibition of CREB/ATF transcription factors in region CA1 of the dorsal hippocampus disrupts hippocampus-dependent spatial memory. Neuron 2002, 34, 447-462; A. E. Ryabinin, M. N. Miller and S. Durrant, Effects of acute alcohol administration on object recognition learning in C57BL/6J mice. Pharmacol. Biochem. Behay. 2002, 71, 307-312; F. Sargolini, P. Roullet, A. Oliverio and A. Mele, Effects of intra-accumbens focal administrations of glutamate antagonists on object recognition memory in mice. Behay. Brain Res. 2003, 138, 153-163].
Test of novel object recognition consists of two tests. The first one is novel object localization test use for examination of spatial memory, and the second one—test of novel object recognition for exploring non spatial memory [D. Gaffan, Amnesia for complex naturalistic scenes and for objects following formix transaction in the Rhesus monkey. Eur. J. Neurosci. 1992, 4, 381-388; B. Kolb, K. Buhrmann, R. McDonald and R. Sutherland, Dissociation of the medial prefrontal, posterior parietal, and posterior temporal cortex, for spatial navigation and recognition memory in the rat. Cereb. Cortex 1994, 6, 664-680; T. Steckler, W. H. I. M. Drinkenburgh, A. Sahgal and J. P. Aggleton, Recognition memory in rats. I. Concepts and classification. Prog. Neurobiol. 1998, 54, 289-311. T. Steckler, W. H. I. M. Drinkenburgh, A. Sahgal and J. P. Aggleton, Recognition memory in rats II. Neuroanatomical substrates. Prog. Neurobiol. 1998, 54, 313-332].
Methods of Investigation.
Subjects were male mice of 3-5 month age of C57BL/6 line, weighing 20-24 g. Animals were housed 5 per cage at light mode 12×12 hr with a light part from 8 till 20 o'clock with water and food available. Experimental setup was made of non-transparent white organic glass measuring 48×38×30 cm. As objects of recognition brown glass bottles measuring 2.7 cm diameter and 5.5 cm high were used. The cage and objects of recognition were wiped with 85% alcohol 2-3 min prior placing an animal in the cage. Animals were always placed in the cage centre. 40 Mg of compound of general formula 1 were dissolved in 0.2 ml of DMSO with the following addition of distilled water up to desired concentration. Solutions were prepared just before a trial. All experiments were carried out on two groups of 10 mice each. Animals were injected in dose 1 and 5 mg/kg in volume 0.05 ml on 10 g of animal weight one hour before the trial. The control animals were injected with an equal volume of distilled water.
Acquaintance with the behavioural cage. At the first test day mice were placed into a research chamber and allowed to acclimate for 20-30 min. After that each animal was placed for 10 minutes into an empty, previously treated with alcohol behavioural chamber for acclimation. Then the animal was placed into the cage and taken back to vivarium.
Training. Next day the same mice were placed into a behavioural chamber and allowed to explore for 20-30 min; after acclimation animals were injected intragastrically by the solution of tested compound. […]

[3] = dose 1 mg/kg intragastrically one hour before training
[4] = dose 5 mg/kg intragastrically one hour before training

Compound | duration of sedative action ([1]; doses 100 and 50 mg/kg, mice) | onset of sedative action after injection ([1]; doses 100 and 50 mg/kg, mice) | sedative action ([1]; doses 100 and 50 mg/kg, mice) | sedative action ([1]; doses of 1 and 5 mg/kg, mice) | animals' death ([1]; unitary introduction into stomach, 14 days of watching) | % of time investigating the object in a novel localization [2, 3] | % of time investigating the object in familiar localization [2, 3] | % of time investigating the object in a novel localization [2, 4] | % of time investigating the object in familiar localization [2, 4] | effect on memory [2] | animals' death ([1]; mouse, in vivo)
Cc1ccc2c(c1)[C@@H]1CN(C)CCC[C@H]1N2Cc1ccccn1.Cl.Cl (relative stereo) [1.2.6(4)HCl, trans-2,9-dimethyl-6-[(pyridin-2-yl)methyl]-1,2,3,4,5,5a,6,10b-octahydroazepino[4,3-b]indole dihydrochloride] | > 24 h | 5 to 10 min | pronounced sedative action | not observed | do not cause animals' death | 49.11±3.3% | 41.3±9.7% | 60.1±9.0% | 39.9±9.0% | stimulating effect on memory | 
Cc1ccc2c(c1)c1c(n2CCc2ccc(C)nc2)CCCN(C)C1.Cl.Cl [1.1.5(2)HCl, 2,9-dimethyl-6-[2-(6-methylpyridin-3-yl)ethyl]-1,2,3,4,5,6-hexahydroazepino[4,3-b]indole dihydrochloride] |  |  |  |  |  | 58.7±9.7% | 41.3±9.7% | 58.8±11.1% | 41.2±11.1% | stimulating effect on memory | do not cause animals' death
Cc1ccc2c(c1)c1c(n2CCc2ccncc2)CCCN(C)C1.Cl.Cl [1.1.5(3)HCl, 2,9-dimethyl-6-[2-(pyridin-4-yl)ethyl]-1,2,3,4,5,6-hexahydroazepino[4,3-b]indole dihydrochloride] |  |  |  |  |  | 55.5±6.2% | 44.5±6.2% | 59.9±5.9% | 40.1±5.9% | stimulating effect on memory | do not cause animals' death
